Test results taken from ChEMBL document CHEMBL3758124, “Synthesis and biological evaluation of new securinine analogues as potential anticancer agents” (Eur J Med Chem, 2016).

Tests used:
[1] = Cytotoxicity against human HCT116 cells assessed as growth inhibition at 20 uM after 72 hrs by ATPlite assay relative to control; type: functional; conditions: HCT-116, 72 h, read-out: GI
[2] = Cytotoxicity against human HCT116 cells assessed as growth inhibition at 10 uM after 72 hrs by ATPlite assay relative to control; type: functional; conditions: HCT-116, 72 h, read-out: GI
[3] = Cytotoxicity against human HCT116 cells assessed as growth inhibition at 1 uM after 72 hrs by ATPlite assay relative to control; type: functional; conditions: HCT-116, 72 h, read-out: GI
[4] = Cytotoxicity against human HL60 cells assessed as growth inhibition after 72 hrs by ATPlite assay; type: functional, cell-based; conditions: HL-60, 72 h
[5] = tested on: A-375; assay: Cytotoxicity against human A375 cells assessed as growth inhibition after 72 hrs by ATPlite assay; type: functional, cell-based; conditions: A-375, 72 h
[6] = tested on: Plasma; assay: Stability in human plasma at 5 uM after 120 mins by LC-MS analysis; type: ADME, cell-free; conditions: 2 h
[7] = tested on: Plasma; assay: Stability in rat plasma at 5 uM after 120 mins by LC-MS analysis; type: ADME, cell-free; conditions: 2 h
[8] = tested on: Plasma; assay: Stability in mouse plasma at 5 uM after 120 mins by LC-MS analysis; type: ADME, cell-free; conditions: 2 h
[9] = tested on: A549; assay: Cytotoxicity against human A549 cells assessed as growth inhibition after 72 hrs by ATPlite assay; type: functional, cell-based; conditions: A549, 72 h
[10] = Cytotoxicity against human HCT116 cells assessed as growth inhibition after 72 hrs by ATPlite assay; type: functional, cell-based; conditions: HCT-116, 72 h
[11] = tested on: MCF7; assay: Cytotoxicity against human MCF7 cells assessed as growth inhibition by CCK8 assay; type: functional, cell-based
[12] = tested on: A549; assay: Cytotoxicity against human A549 cells after 72 hrs by Coulter counter analysis; type: functional, cell-based; conditions: A549, 72 h

Row | SMILES | inhibition of growth at 20 µM [1] | inhibition of growth at 10 µM [2] | inhibition of growth at 1 µM [3] | also measured
1 | CC(=O)c1cccc(C2=CC3=CC(=O)O[C@@]34C[C@@H]2N2CCCC[C@@H]24)c1 | 65% | 35.3% | 3.6% | –
2 | COc1cccc(C2=CC3=CC(=O)O[C@@]34C[C@@H]2N2CCCC[C@@H]24)c1 | 92.8% | 92.7% | 76.3% | IC50 [4]: 140 nM; IC50 [5]: 80 nM; Stability [6]: Stable; Stability [7]: Stable; Stability [8]: Stable; IC50 [9]: 120 nM; IC50 [10]: 260 nM
3 | O=C1C=C2C=C(c3cccc(F)c3)[C@@H]3C[C@@]2(O1)[C@H]1CCCCN31 | 84.1% | 80.3% | 32.1% | –
4 | COc1cc([C@@H]2c3cc4c(cc3[C@@H](O[C@@H]3O[C@@H]5CO[C@@H](C)O[C@H]5[C@H](O)[C@H]3O)[C@H]3COC(=O)[C@H]23)OCO4)cc(OC)c1O [ETOPOSIDE] | – | – | – | IC50 [4]: 860 nM; IC50 [5]: 240 nM; IC50 [9]: 590 nM; IC50 [10]: > 10000 nM
5 | O=C1C=C2C=C(c3cccc(C(F)(F)F)c3)[C@@H]3C[C@@]2(O1)[C@H]1CCCCN31 | 83.1% | 81.9% | 21% | –
6 | O=C1C=C2C=C(c3cccc(Cl)c3)[C@@H]3C[C@@]2(O1)[C@H]1CCCCN31 | 93% | 93.4% | 76.6% | IC50 [4]: 140 nM; IC50 [5]: 80 nM; IC50 [9]: 110 nM; IC50 [10]: 230 nM
7 | COc1ccc(C2=CC3=CC(=O)O[C@@]34C[C@@H]2N2CCCC[C@@H]24)cc1 | 24.8% | 9.4% | 11.7% | –
8 | O=C1C=C2C=C(c3ccc4c(c3)Cc3ccccc3-4)[C@@H]3C[C@@]2(O1)[C@H]1CCCCN31 | 75.1% | 53.6% | 20.9% | –
9 | CC(=O)c1ccc(C2=CC3=CC(=O)O[C@@]34C[C@@H]2N2CCCC[C@@H]24)cc1 | 27.3% | 11.7% | 2.4% | –
10 | CN(C)c1cccc(C2=CC3=CC(=O)O[C@@]34C[C@@H]2N2CCCC[C@@H]24)c1 | 75.7% | 52.7% | 10.2% | –
11 | O=C1C=C2C=C(c3ccc4ccccc4c3)[C@@H]3C[C@@]2(O1)[C@H]1CCCCN31 | 51.1% | 30.9% | 10.8% | –
12 | O=C1C=C2C=C(c3ccccc3)[C@@H]3C[C@@]2(O1)[C@H]1CCCCN31 | 87.4% | 86.7% | 6.8% | –
13 | Cc1cccc(C2=CC3=CC(=O)O[C@@]34C[C@@H]2N2CCCC[C@@H]24)c1 | 92.5% | 93.3% | 75.5% | IC50 [4]: 130 nM; IC50 [5]: 70 nM; IC50 [9]: 140 nM; IC50 [10]: 280 nM
14 | O=C1C=C2C=C[C@@H]3C[C@@]2(O1)[C@H]1CCCCN31 [SECURININE] | 90.7% | 50.6% | 7.6% | IC50 [11]: 25000 nM; IC50 [4]: > 10000 nM; IC50 [5]: 6100 nM; Stability [6]: Stable; IC50 [12]: 25000 nM; Stability [7]: Stable; Stability [8]: Stable; IC50 [9]: > 10000 nM; IC50 [10]: > 10000 nM
15 | COC(=O)c1ccc(C2=CC3=CC(=O)O[C@@]34C[C@@H]2N2CCCC[C@@H]24)cc1 | 24.4% | 8.3% | 7.2% | –
16 | Cc1ccc(C2=CC3=CC(=O)O[C@@]34C[C@@H]2N2CCCC[C@@H]24)cc1 | 82.9% | 73% | 3.4% | –
17 | COC(=O)c1cccc(C2=CC3=CC(=O)O[C@@]34C[C@@H]2N2CCCC[C@@H]24)c1 | 82.8% | 60.2% | 4% | –
18 | O=C1C=C2C=C(c3ccc(Cl)c(Cl)c3)[C@@H]3C[C@@]2(O1)[C@H]1CCCCN31 | 80.5% | 61% | 12.3% | –
19 | O=C1C=C2C=C(c3ccc4c(c3)OCO4)[C@@H]3C[C@@]2(O1)[C@H]1CCCCN31 | 90% | 86.9% | -1.7% | –
20 | O=C1C=C2C=C(c3ccc(F)cc3)[C@@H]3C[C@@]2(O1)[C@H]1CCCCN31 | 52.5% | 30.7% | -2.6% | –
21 | CN(C)c1ccc(C2=CC3=CC(=O)O[C@@]34C[C@@H]2N2CCCC[C@@H]24)cc1 | 47.6% | 21.5% | 3.7% | –
